In paper PMC7123434, “Development of High-Throughput Fluorescent-Based Screens to Accelerate Discovery of P2X Inhibitors from Animal Venoms” (Journal of Natural Products, 2019):

Legend:
Format in all cases: cell-based
hP2X4 [1] = molecular target: T1, hP2X4 (Homo sapiens, UniProt Q99571); experiment: Fura-2 AM [Ca2+]i assay on 1321N1-hP2X4 cells; conditions: used for fitting; Figure S1 A,B: 1321N1-hP2X4 and HEK293-hP2X4; read-out: ATP EC50
T1 construct: expressed in transfected cells
T1 sequence (Q99571 1-388): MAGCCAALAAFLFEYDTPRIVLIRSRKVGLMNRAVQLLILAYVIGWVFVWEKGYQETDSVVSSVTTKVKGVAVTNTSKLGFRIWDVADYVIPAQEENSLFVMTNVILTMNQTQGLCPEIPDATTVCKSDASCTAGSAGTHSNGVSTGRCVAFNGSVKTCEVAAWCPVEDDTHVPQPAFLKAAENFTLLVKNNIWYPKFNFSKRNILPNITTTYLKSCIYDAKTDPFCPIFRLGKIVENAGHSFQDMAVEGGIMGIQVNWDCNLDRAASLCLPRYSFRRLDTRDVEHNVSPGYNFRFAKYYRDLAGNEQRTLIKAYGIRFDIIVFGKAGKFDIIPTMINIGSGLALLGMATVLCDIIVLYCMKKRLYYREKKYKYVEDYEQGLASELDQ
Experimental: One day prior to measurements, 1321N1-hP2X4 cells were plated onto poly-D-lysine-coated 96-well plates at 2 × 10^4 cells/well. After 24 h, the cells were loaded for 1 h at 37 °C with 2 μM Fura-2 AM in Hank’s Balanced Salt Solution (HBSS, Gibco). The Fura-2 loading buffer dye was removed; then the cells were incubated in 80 μL of Etotal buffer, containing (in mM) 145 NaCl, 5 KCl, 1 MgCl2, 2 CaCl2, 13 D-glucose, 10 HEPES; pH 7.33. […] The injection volume was 10 μL with 150 μL pipette height and rate of 4 (∼62 μL/s). The run time was 300 s with 3.5 s intervals and 3 reads/well. The change in [Ca^2+]i concentration was calculated as the ratio of Fura-2 intensities at 520 emission from excitation at 340 and 380 nm (F ratio).

hP2X7 = molecular target: T2, hP2X7 (Homo sapiens, UniProt Q99572); experiment: YOPRO-1 dye uptake assay on HEK293-hP2X7 cells; conditions: used for fitting; Figure S1C: HEK293-hP2X7; read-out: ATP EC50
T2 construct: expressed in transfected cells
T2 sequence (Q99572 1-595): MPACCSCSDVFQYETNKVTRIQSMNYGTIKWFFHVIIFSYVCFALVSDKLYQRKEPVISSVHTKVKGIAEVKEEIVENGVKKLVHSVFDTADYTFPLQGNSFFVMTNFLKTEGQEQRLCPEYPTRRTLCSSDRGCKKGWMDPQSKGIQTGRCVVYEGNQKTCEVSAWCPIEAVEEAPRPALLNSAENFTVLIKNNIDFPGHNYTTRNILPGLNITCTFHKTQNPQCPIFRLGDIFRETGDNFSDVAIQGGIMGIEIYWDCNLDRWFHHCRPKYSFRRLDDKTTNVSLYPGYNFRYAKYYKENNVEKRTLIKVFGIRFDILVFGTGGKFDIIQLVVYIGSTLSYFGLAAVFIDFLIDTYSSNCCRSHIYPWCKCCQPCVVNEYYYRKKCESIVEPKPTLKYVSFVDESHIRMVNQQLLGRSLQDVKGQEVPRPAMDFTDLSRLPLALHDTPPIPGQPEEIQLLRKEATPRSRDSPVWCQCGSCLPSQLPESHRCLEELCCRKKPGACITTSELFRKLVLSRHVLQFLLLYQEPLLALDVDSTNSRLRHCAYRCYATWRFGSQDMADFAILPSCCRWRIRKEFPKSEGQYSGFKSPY
Experimental: (§1) This method was adapted and further optimized from Patrice et al.[50] One day prior to measurements, HEK293-hP2X4 and HEK293-hP2X7 cells were plated on poly-D-lysine-coated 96-well plates at 2 × 10^4 cells/well. After 24 h, the culture media was aspirated, and 80 μL of YOPRO-1 assay buffer (145 mM NaCl, 5 mM KCl, 0.1 mM CaCl2, 13 mM D-glucose, 10 mM HEPES; pH 7.35) with 2 μM YOPRO-1 was applied. […] The injection volume was 10 μL with a 150 μL pipet height and rate of 4 (∼62 μL/s). The run time was 300 s with a 3.9 s interval, 6 reads/well, and 77 reads in total. Measurement parameters were as follows: bottom reading, excitation wavelength (490 nm), emission wavelength (520 nm).

hP2X4 [2] = molecular target: T1, hP2X4; experiment: YOPRO-1 dye uptake assay on HEK293-hP2X4 cells
Experimental: as §1

Structure (SMILES)	EC50 (hP2X4 [1]) [µM]	EC50 (hP2X7) [µM]	inhibition at 10 µM (hP2X4 [2]; 10 μM, hP2X4, cell line not stated) [%]	Normalised Mean (hP2X4 [2]; AUC signal normalised to positive control (10 µM ATP) = 1.0, HEK293-hP2X4)
Nc1ncnc2c1ncn2[C@@H]1O[C@H](COP(=O)(O)OP(=O)(O)OP(=O)(O)O)[C@@H](O)[C@H]1O [ATP]	1.6	300		
CC(C)c1cc(Br)c(NC(=O)Nc2cccnc2)c(Br)c1 [BX430]			75	1.05
